# Reference: US20230203004A1, “RSV INHIBITING 3-SUBSTITUTED QUINOLINE AND CINNOLINE DERIVATIVES” (Janssen Sciences Ireland Unlimited Company, priority 2020, published 2023)
# Tests used:
# HeLa cells = test: Cytotoxicity in HeLa cells (ATP content, ATPlite kit); format: cell-based; conditions: human, 3 days
# Method in brief: (§1)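 HeLa cells infected with GFP-expressing rgRSV224 at MOI 1 in RPMI/10% FBS, 0.05% DMSO, with 9 serial 4-fold compound dilutions; 3 days at 37 °C, GFP read by laser microscopy for EC50. Cytotoxicity: uninfected HeLa cells, 3 days, cellular ATP (ATPlite) for CC50.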
# rgRSV224 virus = test: Antiviral activity: rgRSV224 (GFP) replication in HeLa cells; format: cell-based, respiratory syncytial virus (RSV); conditions: read-out: RSV HELA EC50; HeLa cells, rgRSV224 MOI = 1, GFP expression three days post-virus exposure; averaged data of several repeat experiments
# Method in brief: as §1
SMILES,CC50 (HeLa cells),EC50 (rgRSV224 virus)
"Cc1cc2cc(C(=O)NC[C@](O)(c3cc(C(C)(C)O)c(F)c(-c4ccc(F)cc4)n3)C3(F)CC3)cc(OC3CC3)c2nn1 [compound 317, (-)Cyclopropoxy-N-(2-(5-Fluoro-6-(4-Fluorophenyl)-4-(2-Hydroxypropan-2-yl)Pyridin-2-yl)-2-(1-Fluorocyclopropyl)-2-Hydroxyethyl)-3-Methylcinnoline-6-Carboxamide]",29 µM,0.00087 µM
"Cc1cc2cc(C(=O)NC[C@](O)(c3cc(C(C)(C)O)c(F)c(-c4ccc(F)cc4)n3)C3(F)CC3)cc(OC3CC3)c2nn1 [compound 335, (-)Cyclopropoxy-N-(2-(5-Fluoro-6-(4-Fluorophenyl)-4-(2-Hydroxypropan-2-yl)Pyridin-2-yl)-2-(1-Fluorocyclopropyl)-2-Hydroxyethyl)-3-Methylcinnoline-6-Carboxamide]",~14 µM,0.021 µM
